Laboratory results reported in the CheMixHub viscosity set.

Test: xn = mol fraction of the nth substance listed

c1ccccc1 + Cc1ccccc1
Settings | viscosity [mPa·s]
293.15 K, 100 kPa, x2 = 0.25 | 0.631
293.15 K, 101 kPa, x1 = 0.28 | 0.584
293.15 K, 101 kPa, x1 = 0.54 | 0.597
293.15 K, 101 kPa, x1 = 0.78 | 0.607
293.15 K, 101.33 kPa, x1 = 0.1688 | 0.575
293.15 K, 101.33 kPa, x1 = 0.4383 | 0.592
293.15 K, 101.33 kPa, x1 = 0.5149 | 0.599
293.15 K, 101.33 kPa, x1 = 0.6583 | 0.606
293.15 K, 101.33 kPa, x1 = 0.7819 | 0.617
294.15 K, 100 kPa, x2 = 0.75 | 0.621
294.65 K, 101.33 kPa, x2 = 0.83 | 0.6216
294.75 K, 101.33 kPa, x2 = 0.202 | 0.6571
294.95 K, 101.33 kPa, x2 = 0.62 | 0.6245
295.55 K, 101.33 kPa, x2 = 0.508 | 0.6234
295.65 K, 101.33 kPa, x2 = 0.107 | 0.6473
295.85 K, 101.33 kPa, x2 = 0.272 | 0.6379
296.05 K, 101.33 kPa, x2 = 0.386 | 0.6282
297.35 K, 101.33 kPa, x2 = 0.719 | 0.6066
298.15 K, 101 kPa, x1 = 0.1 | 0.5546
298.15 K, 101 kPa, x1 = 0.1153 | 0.556
298.15 K, 101 kPa, x1 = 0.1272 | 0.555
298.15 K, 101 kPa, x1 = 0.2 | 0.5566
298.15 K, 101 kPa, x1 = 0.2022 | 0.5584
298.15 K, 101 kPa, x1 = 0.28 | 0.556
298.15 K, 101 kPa, x1 = 0.2965 | 0.5613
298.15 K, 101 kPa, x1 = 0.3 | 0.5595
298.15 K, 101 kPa, x1 = 0.3423 | 0.558
298.15 K, 101 kPa, x1 = 0.4 | 0.5632
298.15 K, 101 kPa, x1 = 0.4076 | 0.5651
298.15 K, 101 kPa, x1 = 0.5 | 0.5678
298.15 K, 101 kPa, x1 = 0.54 | 0.566
298.15 K, 101 kPa, x1 = 0.5405 | 0.5703
298.15 K, 101 kPa, x1 = 0.6 | 0.5732
298.15 K, 101 kPa, x1 = 0.7 | 0.5794
298.15 K, 101 kPa, x1 = 0.7024 | 0.579
298.15 K, 101 kPa, x1 = 0.7237 | 0.5802
298.15 K, 101 kPa, x1 = 0.78 | 0.574
298.15 K, 101 kPa, x1 = 0.8 | 0.5864
298.15 K, 101 kPa, x1 = 0.8593 | 0.5888
298.15 K, 101 kPa, x1 = 0.9 | 0.594
298.15 K, 101 kPa, x1 = 0.9275 | 0.594
298.15 K, 101 kPa, x1 = 0.9637 | 0.5968
298.15 K, 101.33 kPa, x1 = 0.0655 | 0.5543
298.15 K, 101.33 kPa, x1 = 0.0991 | 0.5554
298.15 K, 101.33 kPa, x1 = 0.2566 | 0.5591
298.15 K, 101.33 kPa, x1 = 0.3969 | 0.5652
298.15 K, 101.33 kPa, x1 = 0.5481 | 0.572
298.15 K, 101.33 kPa, x1 = 0.6618 | 0.5783
298.15 K, 101.33 kPa, x1 = 0.8029 | 0.5874
298.15 K, 101.33 kPa, x1 = 0.9087 | 0.5951
303.15 K, 101 kPa, x1 = 0.28 | 0.525
303.15 K, 101 kPa, x1 = 0.54 | 0.531
303.15 K, 101 kPa, x1 = 0.78 | 0.539
303.15 K, 101.3 kPa, x1 = 0.0529 | 0.5206
303.15 K, 101.3 kPa, x1 = 0.1185 | 0.522
303.15 K, 101.3 kPa, x1 = 0.2615 | 0.5257
303.15 K, 101.3 kPa, x1 = 0.3482 | 0.5277
303.15 K, 101.3 kPa, x1 = 0.4486 | 0.5312
303.15 K, 101.3 kPa, x1 = 0.5963 | 0.5372
303.15 K, 101.3 kPa, x1 = 0.7138 | 0.5426
303.15 K, 101.3 kPa, x1 = 0.8413 | 0.5482
303.15 K, 101.3 kPa, x1 = 0.9558 | 0.5538
303.15 K, 101.33 kPa, x1 = 0.1688 | 0.509
303.15 K, 101.33 kPa, x1 = 0.4383 | 0.523
303.15 K, 101.33 kPa, x1 = 0.5149 | 0.526
303.15 K, 101.33 kPa, x1 = 0.6583 | 0.529
303.15 K, 101.33 kPa, x1 = 0.7819 | 0.54
303.15 K, 101.33 kPa, x2 = 0.1 | 0.587
303.15 K, 101.33 kPa, x2 = 0.2 | 0.576
303.15 K, 101.33 kPa, x2 = 0.402 | 0.563
303.15 K, 101.33 kPa, x2 = 0.6 | 0.551
303.15 K, 101.33 kPa, x2 = 0.8 | 0.539
303.15 K, 101.33 kPa, x2 = 0.899 | 0.53
305.15 K, 101.33 kPa, x2 = 0.83 | 0.5517
305.35 K, 101.33 kPa, x2 = 0.508 | 0.5535
305.35 K, 101.33 kPa, x2 = 0.719 | 0.554
305.55 K, 101.33 kPa, x2 = 0.107 | 0.5782
305.55 K, 101.33 kPa, x2 = 0.62 | 0.5525
305.65 K, 101.33 kPa, x2 = 0.202 | 0.57
305.75 K, 101.33 kPa, x2 = 0.386 | 0.5579
308.15 K, 101 kPa, x1 = 0.54 | 0.502
308.15 K, 101 kPa, x1 = 0.78 | 0.506
308.15 K, 101.33 kPa, x2 = 0.1 | 0.564
308.15 K, 101.33 kPa, x2 = 0.2 | 0.556
308.15 K, 101.33 kPa, x2 = 0.402 | 0.541
308.15 K, 101.33 kPa, x2 = 0.6 | 0.532
308.15 K, 101.33 kPa, x2 = 0.8 | 0.518
308.15 K, 101.33 kPa, x2 = 0.899 | 0.507
312.85 K, 101.33 kPa, x2 = 0.107 | 0.5215
312.95 K, 101.33 kPa, x2 = 0.202 | 0.5201
312.95 K, 101.33 kPa, x2 = 0.272 | 0.5187
313.05 K, 101.33 kPa, x2 = 0.719 | 0.5077
313.15 K, 101 kPa, x1 = 0.28 | 0.472
313.15 K, 101 kPa, x1 = 0.54 | 0.476
313.15 K, 101 kPa, x1 = 0.78 | 0.48
313.15 K, 101.33 kPa, x1 = 0.1688 | 0.456
313.15 K, 101.33 kPa, x1 = 0.4383 | 0.463
313.15 K, 101.33 kPa, x1 = 0.6583 | 0.471
313.15 K, 101.33 kPa, x1 = 0.7819 | 0.479
313.15 K, 101.33 kPa, x2 = 0.1 | 0.55
313.15 K, 101.33 kPa, x2 = 0.2 | 0.529
313.15 K, 101.33 kPa, x2 = 0.402 | 0.517
313.15 K, 101.33 kPa, x2 = 0.6 | 0.505
313.15 K, 101.33 kPa, x2 = 0.8 | 0.491
313.15 K, 101.33 kPa, x2 = 0.899 | 0.483
313.25 K, 101.33 kPa, x2 = 0.386 | 0.51
313.35 K, 101.33 kPa, x2 = 0.508 | 0.5064
313.45 K, 101.33 kPa, x2 = 0.62 | 0.5057
313.45 K, 101.33 kPa, x2 = 0.83 | 0.5068
318.15 K, 101.33 kPa, x2 = 0.1 | 0.531
318.15 K, 101.33 kPa, x2 = 0.2 | 0.517
318.15 K, 101.33 kPa, x2 = 0.402 | 0.5
318.15 K, 101.33 kPa, x2 = 0.6 | 0.484
318.15 K, 101.33 kPa, x2 = 0.8 | 0.471
318.15 K, 101.33 kPa, x2 = 0.899 | 0.464
322.55 K, 101.33 kPa, x2 = 0.719 | 0.464
322.85 K, 101.33 kPa, x2 = 0.83 | 0.4607
322.95 K, 101.33 kPa, x2 = 0.202 | 0.4648
323.05 K, 101.33 kPa, x2 = 0.62 | 0.4581
323.15 K, 100 kPa, x2 = 0.25 | 0.431
323.15 K, 100 kPa, x2 = 0.5 | 0.427
323.15 K, 100 kPa, x2 = 0.75 | 0.424
323.15 K, 101.33 kPa, x1 = 0.1688 | 0.411
323.15 K, 101.33 kPa, x1 = 0.4383 | 0.416
323.15 K, 101.33 kPa, x1 = 0.5149 | 0.42
323.15 K, 101.33 kPa, x1 = 0.6583 | 0.423
323.15 K, 101.33 kPa, x1 = 0.7819 | 0.424
